Series [1] is described as follows: PK of CNP compounds after i.v. and s.c. administration to rats. The conditions noted are these: male, Sprague Dawley, in vivo, iv, rat, i.v., about 100 nmol/kg. The method, then:
In order to assess the i.v. and s.c. PK/PD profile of CNP compounds of the present invention, formulations of CNP compounds were administered to rats, blood samples taken and exposure and cGMP response measured.
Quantitative plasma analysis of CNP-compounds: Plasma concentrations of CNP compounds were assayed by plasma protein precipitation and analysed by turboflow liquid chromatography mass spectrometry (TF-LC-MS). Calibrators were prepared by spiking either blank rat or minipig plasma with the relevant CNP compound in the range from 0.5 to 2000 nM. Calibrators, plasma blanks or study samples were prepared for TF-LC-MS by protein precipitation by adding three or four volumes of either ethanol or methanol containing 20 nM of internal standard to one volume of sample. For some compounds, formic acid was added to the precipitation reagent (the final concentration was 1% v/v). After the addition of the precipitation reagent, the mixture was centrifuged at 6200 rpm at 4° C. for 30 minutes. After centrifugation, one volume of supernatant was mixed with two volumes of water (with 1% v/v formic acid). The mixture was analysed by TF-LC-MS using a Cyclone turboflow column (0.5×50 mm, ThermoFisher Scientific) and either a XBridge Protein BEH C4 3.5 μm 300 Åor a XBridge Protein BEH C18 3.5 μm 130 Åanalytical column (both were 50×2.1 mm and obtained from Waters). […] The mass spectrometer was operated in positive ionisation mode. A TSQ Altis mass spectrometer (ThermoFisher Scientific) was used as detector in selected reaction monitoring mode (specific transition were optimised for each CNP compound). Linear calibration curves (weighed 1/×2) were used for calculating the concentration in the plasma samples. Quality control samples were included. The deviation between nominal and calculated concentration in the calibrators and quality control samples were below 15%.
Animals and dosing: Groups of 4-6 rats (male, Sprague Dawley, 350 g at arrival, Janvier, France) per compound and route of administration were dosed with a CNP compound formulated either in A) 8 mM sodium phosphate, 250 mM glycerol, 0.007% polysorbate 20, pH 7.4 or B) 5 mM sodium acetate, 250 mM glycerol, 0.007% polysorbate 20, pH 4.0 depending on the respective compound. S.c. dose was 300 nmol/kg, at a concentration of […] resulting in a dosing volume of 0.3 mL/kg, whereas i.v. dose was 100 nmol/kg, at a concentration of […] resulting in a dosing volume of 1 mL/kg.
Sampling: Sublingual blood samples of 250 uL were collected from unanaesthetised rats in EDTA-coated vials (Microvette 600K3E ref #15.1673.100 Sarstedt) at baseline (-1 h before dosing) as well as 5 min (only i.v. dosed groups), 2 h, 6 h, 24 h, 48 h and 72 h (only for exposure analysis) post-dosing. The blood samples were quickly stored on ice and centrifuged (4° C., 8000 RPM, 5 min) within 10 min of collection. Plasma samples of 50 μL were transferred to each micronic tube for either exposure or cGMP analysis, kept on dry ice and stored in a freezer (−20° C.). Rats had access to food (Altromin) and tap water ad libitum.
Analysis: PK parameters were calculated by non-compartment analysis (NCA) using software Phoenix WinNonlin (ver. 8.1 or later, Certara) for each animal. Clearance (Cl) was calculated as: Dose/AUCinf (linear up, log down). […] Bioavailability was calculated as dose normalized AUC's: (AUC(sc)/Dose(sc))/(AUC(iv)/Dose(iv)). Values in the table are means from individual animals (n=4-6 individual animals). The subsequent plots for cGMP plasma concentration versus time are (Y-axis) mean cGMP concentration (n=4-6 individual animals) after IV dosing and (X-axis) nominal plasma sampling time.
Plasma cGMP are reported as the mean.

The target of series [2] is T1, human natriuretic peptide receptor 2 (hNPR2) (Homo sapiens, UniProt P20594).
T1 construct: expressed in transfected cells; host or cells: HEK293 (ATCC CRL-1573), clone 35, co-transfected with pGloSensor-42F
T1 sequence (P20594 23-1047): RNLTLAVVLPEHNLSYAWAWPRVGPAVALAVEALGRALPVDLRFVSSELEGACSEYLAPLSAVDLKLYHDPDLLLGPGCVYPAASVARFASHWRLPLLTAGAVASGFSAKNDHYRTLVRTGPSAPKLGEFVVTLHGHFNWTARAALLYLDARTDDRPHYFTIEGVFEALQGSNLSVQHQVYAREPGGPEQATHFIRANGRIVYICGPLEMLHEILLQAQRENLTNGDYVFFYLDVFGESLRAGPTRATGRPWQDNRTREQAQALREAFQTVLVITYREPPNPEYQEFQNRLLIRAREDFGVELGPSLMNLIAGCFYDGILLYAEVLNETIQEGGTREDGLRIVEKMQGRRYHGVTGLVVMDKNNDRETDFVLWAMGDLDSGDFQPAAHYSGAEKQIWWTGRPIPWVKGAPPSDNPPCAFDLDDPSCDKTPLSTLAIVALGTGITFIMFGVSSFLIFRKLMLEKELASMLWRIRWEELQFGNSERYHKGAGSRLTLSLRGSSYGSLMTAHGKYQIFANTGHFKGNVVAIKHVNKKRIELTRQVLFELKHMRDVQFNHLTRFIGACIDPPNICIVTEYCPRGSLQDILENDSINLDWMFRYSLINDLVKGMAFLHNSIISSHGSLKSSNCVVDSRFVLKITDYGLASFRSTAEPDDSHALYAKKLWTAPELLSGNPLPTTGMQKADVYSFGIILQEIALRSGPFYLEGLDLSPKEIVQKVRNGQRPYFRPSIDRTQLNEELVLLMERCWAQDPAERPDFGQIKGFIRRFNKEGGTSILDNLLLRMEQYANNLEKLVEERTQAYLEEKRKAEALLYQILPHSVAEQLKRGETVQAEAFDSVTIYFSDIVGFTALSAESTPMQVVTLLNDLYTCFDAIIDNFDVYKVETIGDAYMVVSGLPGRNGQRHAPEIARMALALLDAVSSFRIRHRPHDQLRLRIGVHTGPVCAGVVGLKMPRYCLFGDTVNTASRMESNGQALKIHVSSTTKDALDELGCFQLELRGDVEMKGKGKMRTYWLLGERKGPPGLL
The series is described as follows: In vitro hNPR2 activity assay (cGMP GloSensor reporter, HEK293). It is filed as cell-based. The conditions noted are these: potency relative to CNP22 (0065). The procedure, abridged:
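Potency is the EC50 from a four-parameter logistic fit, also expressed relative to the in-plate CNP22 control (×100), with at least two replicates. Compounds (ten concentrations, […], HSA-free diluent with 1% OVA, 0.01% Tween20) were incubated 30 min at 37 °C on HEK293 cells co-expressing hNPR2 and a GloSensor cGMP luciferase. Luminescence detected with Bright-Glo.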

Series [3] is described as follows: Solubility of CNP compounds at pH 4.0 and pH 6.5. It is filed as physicochemical. The conditions noted are these: 8 mM sodium phosphate, 23 mg/mL glycerol, pH 6.5, room temperature; read-out: Solubility at pH 6.5. The method, then: In order to assess the suitability of CNP compounds for a soluble liquid formulation, the solubility of CNP compounds in pharmaceutically relevant buffers were measured. Solubility at two different pH-levels (pH 4.0 and pH 6.5) was examined as pH is expected to affect solubility.
Preparation of pH 4.0 samples: The pH 4.0 samples of the CNP compounds were prepared by mixing freeze dried peptide with a pH 4.0 5 mM sodium acetate, 250 mM glycerol buffer at room temperature to a nominal concentration of at least 4000-5000 nmol/mL. The pH of the samples was measured and adjusted to pH 4.0 and the samples were allowed to equilibrate at room temperature until next day if not fully dissolved.
Preparation of pH 6.5 samples: The pH 6.5 samples of the CNP compounds were prepared by dissolving the freeze dried peptide in water. While stirring, a part of the peptide solution was transferred to a buffer consisting of 41 mM sodium phosphate and 118 mg/mL glycerol, pH 7.5-8.0, followed by addition of diluted sodium hydroxide followed by another part of the peptide solution and further addition of diluted sodium hydroxide. This procedure was repeated until all of the peptide solution had been added where a nominal concentration of at least 4000-5000 nmol/mL had been reached and the buffer composition was 8 mM sodium phosphate, 23 mg/mL glycerol. The pH of the samples were measured and adjusted to pH 6.5 and the samples were allowed to equilibrate at room temperature until next day if not fully dissolved.
Procedure: Samples at pH 4.0 were prepared as described above and the compound concentration in the supernatant was determined using CAD (Method F, CAD02).
Samples at pH 6.5 were prepared as described above and peptide concentration in the supernatant was determined by CAD (Method F, CAD02).

SMILES strings stand for the structures. Converted amounts (≈) assume the structure as drawn. Starred links: 1 amine or outer side, 2 acyl side, 3 side chain; linkers in the order of their positions; H or OH if unused. Positions of bridges follow the written chain, without caps; N, C: chain ends. Residues, ends and D or L forms follow the SMILES beside them. *: point of attachment. C20 diacid = O=C(O)CCCCCCCCCCCCCCCCCCC(=O)*; C18 diacid = O=C(O)CCCCCCCCCCCCCCCCC(=O)*; γGlu = O=C(O)[C@H](CCC(=O)[*:2])N[*:1]; AEEA = NCCOCCOCC(=O)O

As for `CC[C@H](C)[C@@H]1NC(=O)[C@H](CCCNC(=N)N)NC(=O)[C@H](CC(=O)O)NC(=O)[C@H](CC(C)C)NC(=O)[C@@H]2CCCN2C(=O)[C@H](CC(C)C)NC(=O)CNC(=O)[C@H](Cc2ccccc2)NC(=O)[C@@H](NC(=O)CNC(=O)[C@H](CCCCN)NC(=O)[C@H](CO)NC(=O)[C@H](CC(C)C)NC(=O)CNC(=O)[C@H](CCCCN)NC(=O)[C@H](CCCCN)NC(=O)[C@H](CCC(N)=O)NC(=O)[C@H](C)NC(=O)CNC(=O)[C@H](CCC(=O)O)NC(=O)[C@H](Cc2ccc(O)cc2)NC(=O)COCCOCCNC(=O)COCCOCCNC(=O)CC[C@H](NC(=O)CCCCCCCCCCCCCCCCCCC(=O)O)C(=O)O)CSSC[C@@H](C(=O)O)NC(=O)CNC(=O)[C@H](CC(C)C)NC(=O)CNC(=O)[C@H](CO)NC(=O)[C@H](CC(C)C)NC(=O)[C@H](CO)NC(=O)CNC1=O` [compound 1376] ({C20 diacid-γGlu-AEEA-AEEA}-YEGAQKKGLSKGCFGLPLDRIGSLSGLGC-OH; disulfide 13-29), the clearance in series [1] (read-out: Cl (L/hr/kg), i.v. administration (converted)) was 0.00418 L/h/kg. Further, the half-life in series [1] (read-out: T½ (hr), i.v. administration (converted)) is 9.55 h.
Turning to `CC[C@H](C)[C@@H]1NC(=O)[C@H](CCCNC(=N)N)NC(=O)[C@H](CC(=O)O)NC(=O)[C@H](CC(C)C)NC(=O)[C@@H]2CCCN2C(=O)[C@H](CC(C)C)NC(=O)CNC(=O)[C@H](Cc2ccccc2)NC(=O)[C@@H](NC(=O)CNC(=O)[C@H](CO)NC(=O)[C@H](CO)NC(=O)[C@@H](NC(=O)CNC(=O)[C@@H](NC(=O)[C@H](Cc2c[nH]cn2)NC(=O)[C@H](CCC(N)=O)NC(=O)[C@H](C)NC(=O)CNC(=O)[C@H](Cc2c[nH]cn2)NC(=O)[C@H](Cc2ccc(O)cc2)NC(=O)[C@H](CCCCN)NC(=O)[C@H](CCCNC(=N)N)NC(=O)[C@H](C)NC(=O)COCCOCCNC(=O)COCCOCCNC(=O)CC[C@H](NC(=O)CC[C@H](NC(=O)CCCCCCCCCCCCCCCCC(=O)O)C(=O)O)C(=O)O)[C@@H](C)O)C(C)C)CSSC[C@@H](C(=O)O)NC(=O)CNC(=O)[C@H](CC(C)C)NC(=O)CNC(=O)[C@H](CO)NC(=O)[C@H](CC(C)C)NC(=O)[C@H](CO)NC(=O)CNC1=O` [compound 1419] ({C18 diacid-γGlu-γGlu-AEEA-AEEA}-ARKYHGAQHTGVSSGCFGLPLDRIGSLSGLGC-OH; disulfide 16-32), in series [2], the “hNPR2 0% HSA. [EC50% rel CNP]” value is listed as 37.2%. Besides, the solubility in series [3] was 318 µM (≈ 1300 µg/mL).
In the case of `CC[C@H](C)[C@@H]1NC(=O)[C@H](CCCNC(=N)N)NC(=O)[C@H](CC(=O)O)NC(=O)[C@H](CC(C)C)NC(=O)[C@@H]2CCCN2C(=O)[C@H](CC(C)C)NC(=O)CNC(=O)[C@H](Cc2ccccc2)NC(=O)[C@@H](NC(=O)CNC(=O)[C@H](CO)NC(=O)[C@H](CO)NC(=O)[C@@H](NC(=O)CNC(=O)[C@@H](NC(=O)[C@H](CCCCN)NC(=O)[C@H](CCC(N)=O)NC(=O)[C@H](C)NC(=O)CNC(=O)[C@H](CCCCN)NC(=O)[C@H](Cc2ccc(O)cc2)NC(=O)[C@H](CCCCN)NC(=O)[C@H](CCCNC(=N)N)NC(=O)[C@H](C)NC(=O)COCCOCCNC(=O)COCCOCCNC(=O)CC[C@H](NC(=O)CC[C@H](NC(=O)CC[C@H](NC(=O)CCCCCCCCCCCCCCCCC(=O)O)C(=O)O)C(=O)O)C(=O)O)[C@@H](C)O)C(C)C)CSSC[C@@H](C(=O)O)NC(=O)CNC(=O)[C@H](CC(C)C)NC(=O)CNC(=O)[C@H](CO)NC(=O)[C@H](CC(C)C)NC(=O)[C@H](CO)NC(=O)CNC1=O` [compound 1421] ({C18 diacid-γGlu-γGlu-γGlu-AEEA-AEEA}-ARKYKGAQKTGVSSGCFGLPLDRIGSLSGLGC-OH; disulfide 16-32), the “hNPR2 0% HSA. [EC50% rel CNP]” value in series [2] is reported as 50.0%. The solubility in series [3] was determined as 857 µM (≈ 3600 µg/mL).

The values above are taken from patent US20240209028A1, “CNP COMPOUNDS” (priority 2022, published 2024).
